ChEMBL document CHEMBL6182869, “Tetracationic tetraaryltetranaphtho[2,3]porphyrins for photodynamic inactivation against Staphylococcus aureus biofilm” (Eur J Med Chem, 2025)
Active and inactive are the calls of the source. No cut-off for these calls is given here.

Columns and labels:
[1] = Induction of singlet oxygen quantum yield under 418 nm light irradiation by DPBF based assay; assay type: functional
[2] = tested on: Staphylococcus aureus; assay: Antibacterial activity against Staphylococcus aureus assessed as bacterial growth inhibition measured after 24 hrs by broth microdilution method; assay type: functional
[3] = tested on: Escherichia coli; assay: Antibacterial activity against Escherichia coli assessed as bacterial growth inhibition preincubated with compound for 15 mins followed by light irradiated with 730 nm, 40 J/cm2 and measured after 24 hrs by broth microdilution method; assay type: functional; conditions: light or radiation study, 24.25 h, time 1455 min
[4] = Photophysical property of the compound assessed as fluorescence quantum yield by UV-vis spectrophotometric analysis; assay type: physicochemical
[5] = tested on: Escherichia coli; assay: Antibacterial activity against Escherichia coli assessed as bacterial growth inhibition measured after 24 hrs by broth microdilution method; assay type: functional
[6] = Photophysical property of the compound assessed as singlet oxygen quantum yield by UV-vis spectrophotometric analysis; assay type: physicochemical
[7] = tested on: Candida albicans; assay: Antifungal activity against Candida albicans assessed as fungal growth inhibition preincubated with compound for 15 mins followed by light irradiated with 730 nm, 40 J/cm2 and measured after 24 hrs by broth microdilution method; assay type: functional; conditions: light or radiation study, 24.25 h, time 1455 min
[8] = tested on: Staphylococcus aureus; assay: Antibacterial activity against Staphylococcus aureus assessed as bacterial growth inhibition preincubated with compound for 15 mins followed by light irradiated with 730 nm, 40 J/cm2 and measured after 24 hrs by broth microdilution method; assay type: functional; conditions: light or radiation study, 24.25 h, time 1455 min
[9] = tested on: Candida albicans; assay: Antifungal activity against Candida albicans assessed as fungal growth inhibition measured after 24 hrs by broth microdilution method; assay type: functional

With [Br-].[Br-].[Br-].[Br-].c1cc[n+](CCCCCOc2ccc(-c3c4nc(c(-c5ccc(OCCCCC[n+]6ccccc6)cc5)c5[nH]c(c(-c6ccc(OCCCCC[n+]7ccccc7)cc6)c6nc(c(-c7ccc(OCCCCC[n+]8ccccc8)cc7)c7[nH]c3c3cc8ccccc8cc73)-c3cc7ccccc7cc3-6)c3cc6ccccc6cc53)-c3cc5ccccc5cc3-4)cc2)cc1 the Activity [1] was “Active”, the MIC [2] was 64 µM and the MIC [3] was over 64 µM. The Activity [4] was 0.08, the MIC [5] was over 64 µM and the Activity [6] was 0.5. It also gave an MIC [7] of 32 µM, an MIC [8] of 32 µM and an MIC [9] of 64 µM.

In the case of CC[N+](C)(CC)CCCCCCOc1ccc(-c2c3nc(c(-c4ccc(OCCCCCC[N+](C)(CC)CC)cc4)c4[nH]c(c(-c5ccc(OCCCCCC[N+](C)(CC)CC)cc5)c5nc(c(-c6ccc(OCCCCCC[N+](C)(CC)CC)cc6)c6[nH]c2c2cc7ccccc7cc62)-c2cc6ccccc6cc2-5)c2cc5ccccc5cc42)-c2cc4ccccc4cc2-3)cc1.[Br-].[Br-].[Br-].[Br-], the Activity [1] is reported as “Active”, the MIC [2] is reported as 64 µM and the MIC [3] is reported as over 64 µM. It also gave an Activity [4] of 0.07, an MIC [5] of over 64 µM and an Activity [6] of 0.68. For the same molecule, the MIC [7] was 64 µM, the MIC [8] was 64 µM and the MIC [9] was 64 µM.

In the case of C[N+](C)(C)CCCCCOc1ccc(-c2c3nc(c(-c4ccc(OCCCCC[N+](C)(C)C)cc4)c4[nH]c(c(-c5ccc(OCCCCC[N+](C)(C)C)cc5)c5nc(c(-c6ccc(OCCCCC[N+](C)(C)C)cc6)c6[nH]c2c2cc7ccccc7cc62)-c2cc6ccccc6cc2-5)c2cc5ccccc5cc42)-c2cc4ccccc4cc2-3)cc1.[Br-].[Br-].[Br-].[Br-], the Activity [1] is reported as “Active”, the MIC [2] is reported as 64 µM and the MIC [3] is reported as over 64 µM. It also gave an Activity [4] of 0.07, an MIC [5] of over 64 µM and an Activity [6] of 0.47. For the same molecule, the MIC [7] was 64 µM, the MIC [8] was 16 µM and the MIC [9] was 64 µM.
